Publication PMC9780888, “4-Isobutylmethcathinone—A Novel Synthetic Cathinone with High In Vitro Cytotoxicity and Strong Receptor Binding Preference of Enantiomers” (Pharmaceuticals, 2022)
Structures can show the parent of a compound that is named as a salt.

Target: T1, dopamine receptor DAR3 (Homo sapiens, UniProt P35462)
T1 construct: host or cells: HTLA (HEK 293-derived)
Test: PRESTO-Tango β-arrestin 2 recruitment assay, DAR3
Format: cell-based
Settings: for increase in RLU compared to the control: DAR3, 500 nM
Description: However, binding to a specific receptor/transporter and, thus, the mechanism of action of a given cathinone always depends on the specific structure of the evaluated compound [37]. In this study, the binding activity of IBMcat and its enantiomers was verified by PRESTO-Tango (parallel receptor expression and screening via transcriptional output, with transcriptional activation following arrestin-2 translocation) assay using the HTLA cell line stably producing β-arrestin-2 in a fusion with TEV and luciferase production driven by tTA. For this purpose, the HTLA cells were transiently transfected with plasmid DNA encoding the dopamine receptors type 1-4 (DAR1-4), which also contain the TEV protease cleavage site followed by tTA at the 3’-end (DAR1-Tango, DAR2-Tango, DAR3-Tango, DAR4-Tango). In the case of the receptor activation by a ligand, in transfected cells, the receptor is desensitized by β-arrestin fused to TEV protease. This brings the TEV protease close to the site that specifically cleaves and, thus, the transcription factor can be cleaved. The transcription factor then translocates to the cell nucleus, in which it triggers the transcription of the target gene for luciferase production which can be determined by the light emitted from luciferin conversion to oxyluciferin. Here, the pronounced luminescence was recorded for all DAR1-4 types in HTLA cells treated with IBMCat and its enantiomers (Figure 8).
The HTLA cell line was used for the PRESTO-Tango β-arrestin recruitment assay. […]
The transfected HTLA cells were incubated for 24 h, and then 1 × 10^4 cells were seeded per well of a white 96-well clear bottom plate (Brand, Germany) in 40 μL of DMEM with 1% charcoal-stripped FBS (Thermo Fisher Scientific, USA). […] After 5 min., the luminescence was measured using a multi-mode microplate reader SpectraMax iD5 (Molecular Devices, San Jose, CA, USA) measuring the entire wavelength spectrum. All samples were measured in quadruplicates. The data were evaluated by Prism 7 software (GraphPad, San Jose, CA, USA).

T1 sequence (P35462 whole entry): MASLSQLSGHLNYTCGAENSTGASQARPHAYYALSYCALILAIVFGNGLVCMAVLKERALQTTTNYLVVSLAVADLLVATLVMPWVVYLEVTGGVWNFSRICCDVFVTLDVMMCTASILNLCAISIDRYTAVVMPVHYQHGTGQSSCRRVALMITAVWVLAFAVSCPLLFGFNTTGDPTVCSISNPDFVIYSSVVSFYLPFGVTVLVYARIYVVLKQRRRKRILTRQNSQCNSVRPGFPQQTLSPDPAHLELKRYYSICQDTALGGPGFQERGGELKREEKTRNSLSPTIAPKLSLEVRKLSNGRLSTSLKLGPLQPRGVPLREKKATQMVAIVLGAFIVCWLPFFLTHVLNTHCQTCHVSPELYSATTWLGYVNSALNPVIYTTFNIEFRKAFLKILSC

SMILES | increase in RLU compared to the control | effect on DAR3-expressing cells (0-500 nM)
CNC(C)C(=O)c1ccc(CC(C)C)cc1.Cl (stereo not drawn) [IBMcat, 4-isobutylmethcathinone hydrochloride] | 5 fold | –
CN[C@H](C)C(=O)c1ccc(CC(C)C)cc1 [R-IBMCat] | – | no effect
CN[C@@H](C)C(=O)c1ccc(CC(C)C)cc1 [S-IBMCat, (S)-4-isobutylmethcathinone hydrochloride] | 6.5 fold | –
